From patent publication US20060269950A1, “Method of identifying compounds that modulate interaction of androgen receptor with beta-catenin” (Wyeth, priority 2005, published 2006)

Legend:
[1] = system: estrogen receptor (ER) interaction with β-catenin; assay: One-hybrid GAL4-β-catenin luciferase reporter assay in CV-1 cells with ER expression plasmid; format: cell-based; details: 10 nM, 18 hours
Protocol: (§1) CV-1 cells were cultured on 96 well plates and transfected after 24 hours with the expression and reporter plasmids using the lipofectamine procedure (Invitrogen). In this procedure, the three different plasmid constructs used were mixed in cell culture media and lipofectamine and incubated for 15 minutes according to the manufacturer's instructions (Invitrogen). The plasmid-lipofectamine mixture was diluted in culture medium, added to cells, and incubated for 4 hours. The cells were rinsed and then treated with culture media. Twenty-four hours after transfection, the cells were treated with androgen agonists and antagonists or vehicle. After 18 hours, cell lysates were harvested and assayed for luciferase activity using luciferase reagent (Promega) and a luminometer (Wallac). Other known transfection techniques can be used including, for example, calcium phosphate precipitation transfection technique.
(§2) CV-1 cells were transfected with the 5XGAL4-luciferase reporter and the GAL4-O-catenin expression plasmid in the absence of a nuclear receptor expression vector (−), with the AR, PR, or ER expression plasmid. […] Cell lysates were harvested and analyzed for luciferase activity.

[2] = biological target: T1, progesterone receptor (PR) interaction with β-catenin (Homo sapiens, UniProt P06401); assay: One-hybrid GAL4-β-catenin luciferase reporter assay in CV-1 cells with PR expression plasmid; format: cell-based; details: 10 nM, 18 hours
T1 construct: expressed in transfected cells; host or cells: CV-1 cells
T1 sequence (P06401 1-933): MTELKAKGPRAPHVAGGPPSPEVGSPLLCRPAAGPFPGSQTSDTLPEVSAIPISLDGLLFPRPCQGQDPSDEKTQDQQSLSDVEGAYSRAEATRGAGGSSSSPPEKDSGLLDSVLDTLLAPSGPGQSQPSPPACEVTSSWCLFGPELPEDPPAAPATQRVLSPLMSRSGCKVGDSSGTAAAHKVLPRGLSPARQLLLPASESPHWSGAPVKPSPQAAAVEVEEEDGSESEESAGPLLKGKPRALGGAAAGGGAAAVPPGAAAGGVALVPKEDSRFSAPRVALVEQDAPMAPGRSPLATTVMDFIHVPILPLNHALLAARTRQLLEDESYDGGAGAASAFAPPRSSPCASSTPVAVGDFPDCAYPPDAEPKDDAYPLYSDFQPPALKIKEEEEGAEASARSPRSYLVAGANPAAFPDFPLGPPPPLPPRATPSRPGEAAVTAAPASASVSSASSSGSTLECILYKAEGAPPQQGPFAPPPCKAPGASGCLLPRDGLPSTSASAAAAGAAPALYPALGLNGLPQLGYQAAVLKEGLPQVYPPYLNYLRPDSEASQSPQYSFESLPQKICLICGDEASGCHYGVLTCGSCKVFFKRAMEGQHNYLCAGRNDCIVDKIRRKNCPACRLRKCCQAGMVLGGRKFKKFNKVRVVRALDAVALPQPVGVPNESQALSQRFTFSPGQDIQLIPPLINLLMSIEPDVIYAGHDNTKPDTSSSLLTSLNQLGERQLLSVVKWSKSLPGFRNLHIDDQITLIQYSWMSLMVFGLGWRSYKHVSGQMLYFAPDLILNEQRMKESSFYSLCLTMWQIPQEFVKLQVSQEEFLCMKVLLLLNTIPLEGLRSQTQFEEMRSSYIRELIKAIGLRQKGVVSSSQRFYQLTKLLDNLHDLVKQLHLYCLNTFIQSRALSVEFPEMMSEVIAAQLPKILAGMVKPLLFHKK
Protocol: as §1, §2

[3] = biological target: T2, interaction between AR and β-catenin (Mus musculus, UniProt P19091); assay: Co-immunoprecipitation of β-catenin followed by Western analysis for AR in L929 cells; details: 300 nM (30-fold excess) in presence of 10 nM DHT, 17 hours
T2 sequence (P19091 1-899): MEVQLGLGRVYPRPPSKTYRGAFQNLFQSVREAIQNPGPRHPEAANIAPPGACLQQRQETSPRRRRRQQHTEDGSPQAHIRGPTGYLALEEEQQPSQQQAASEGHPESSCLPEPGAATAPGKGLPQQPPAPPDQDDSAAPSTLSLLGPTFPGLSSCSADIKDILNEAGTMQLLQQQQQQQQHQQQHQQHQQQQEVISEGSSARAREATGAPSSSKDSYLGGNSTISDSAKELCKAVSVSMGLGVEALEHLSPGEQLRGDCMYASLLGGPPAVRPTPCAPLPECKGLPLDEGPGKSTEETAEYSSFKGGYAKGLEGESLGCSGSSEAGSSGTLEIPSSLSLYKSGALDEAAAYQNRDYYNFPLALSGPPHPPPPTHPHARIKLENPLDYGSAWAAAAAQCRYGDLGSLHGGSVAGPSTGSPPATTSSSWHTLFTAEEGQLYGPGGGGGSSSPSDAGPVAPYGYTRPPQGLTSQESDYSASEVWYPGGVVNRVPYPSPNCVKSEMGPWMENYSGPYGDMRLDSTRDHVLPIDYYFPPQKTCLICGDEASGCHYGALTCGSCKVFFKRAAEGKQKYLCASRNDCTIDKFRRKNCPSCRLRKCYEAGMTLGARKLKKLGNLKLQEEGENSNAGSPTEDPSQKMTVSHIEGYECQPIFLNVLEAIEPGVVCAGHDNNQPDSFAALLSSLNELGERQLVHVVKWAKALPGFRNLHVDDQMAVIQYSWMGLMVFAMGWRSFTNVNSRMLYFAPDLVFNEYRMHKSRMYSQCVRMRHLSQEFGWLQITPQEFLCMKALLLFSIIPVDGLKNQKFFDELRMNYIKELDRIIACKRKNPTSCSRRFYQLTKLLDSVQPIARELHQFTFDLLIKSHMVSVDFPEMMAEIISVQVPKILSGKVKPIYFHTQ
Protocol: Cell lysates were harvested, precleared with protein A/G sepharose, and β-catenin was immunoprecipitated using a goat polyclonal IgG against β-catenin conjugated to agarose (Santa Cruz Biotechnology). The immunoprecipitates were analyzed by polyacrylamide gel electrophoresis followed by Western analysis for AR and β-catenin (β-cat) as indicated using antibodies from Santa Cruz (FIG. 2).

[4] = biological target: T3, interaction between AR and β-catenin (Homo sapiens, UniProt P10275); assay: One-hybrid GAL4-β-catenin/AR luciferase reporter assay in CV-1 cells; format: cell-based, African green monkey; details: AR expressing CV-1 cells, 10 nM, 18 hours
T3 construct: The AR expression vector is human full length AR cDNA in pcDNA3; expressed in transfected cells; host or cells: CV-1 cells
T3 sequence (P10275 1-920): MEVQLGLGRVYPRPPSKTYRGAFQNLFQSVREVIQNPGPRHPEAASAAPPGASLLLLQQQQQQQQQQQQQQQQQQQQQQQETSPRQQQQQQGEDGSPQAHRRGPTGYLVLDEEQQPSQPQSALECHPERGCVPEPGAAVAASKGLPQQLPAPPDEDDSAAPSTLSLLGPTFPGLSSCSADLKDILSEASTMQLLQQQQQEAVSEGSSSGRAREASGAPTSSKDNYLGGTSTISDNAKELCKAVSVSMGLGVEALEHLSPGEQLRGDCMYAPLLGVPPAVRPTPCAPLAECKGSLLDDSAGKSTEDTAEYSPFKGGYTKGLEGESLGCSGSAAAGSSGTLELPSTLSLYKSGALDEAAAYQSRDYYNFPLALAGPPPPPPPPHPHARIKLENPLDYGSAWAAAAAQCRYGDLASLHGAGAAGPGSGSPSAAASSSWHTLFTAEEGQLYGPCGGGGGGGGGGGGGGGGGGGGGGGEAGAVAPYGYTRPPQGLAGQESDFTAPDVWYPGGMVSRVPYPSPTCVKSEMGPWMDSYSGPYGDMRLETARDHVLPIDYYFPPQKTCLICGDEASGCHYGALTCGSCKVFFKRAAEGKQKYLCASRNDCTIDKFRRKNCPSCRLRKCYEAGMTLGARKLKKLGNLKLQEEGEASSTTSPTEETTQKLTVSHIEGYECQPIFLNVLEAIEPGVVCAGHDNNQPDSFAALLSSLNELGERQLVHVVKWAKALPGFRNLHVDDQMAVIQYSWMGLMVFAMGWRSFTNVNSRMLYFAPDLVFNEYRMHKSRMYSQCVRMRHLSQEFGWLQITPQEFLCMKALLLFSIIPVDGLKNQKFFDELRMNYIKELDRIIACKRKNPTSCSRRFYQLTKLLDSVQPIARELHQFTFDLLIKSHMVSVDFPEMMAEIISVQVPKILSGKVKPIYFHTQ
Protocol: as §1
(§3) Cell lysates were harvested and analyzed for luciferase activity.
as §2, §3

SMILES: C[C@]12CC[C@@H]3c4ccc(O)cc4CC[C@H]3[C@@H]1CC[C@@H]2O [17β-estradiol]
- activity in the one-hybrid assay (reporter activity) [1]: no activity
- activity in the one-hybrid assay (reporter activity) [2]: no activity

SMILES: C[C@]12CCC(=O)C[C@@H]1CC[C@@H]1[C@@H]2CC[C@]2(C)[C@@H](O)CC[C@@H]12 [DHT, dihydrotestosterone]
- activity in the one-hybrid assay (reporter activity) [1]: no activity
- activity in the one-hybrid assay (reporter activity) [2]: no activity

SMILES: CC(C)(O)C(=O)Nc1ccc([N+](=O)[O-])c(C(F)(F)F)c1 [hydroxyflutamide]
- effect on DHT-stimulated AR/β-catenin protein-protein interaction [3]: attenuated

SMILES: C[C@H](O)C(=O)[C@@]1(C)CC[C@H]2[C@@H]3CCC4=CC(=O)CCC4=C3CC[C@@]21C [trimegestone]
- reporter (luciferase) activity [4]: not
- activity in the one-hybrid assay (reporter activity) [1]: no activity
- activity in the one-hybrid assay (reporter activity) [2]: no activity
